Tests used:
Assay type in all cases: cell-based
IKZF2 (Helios) [1] = target: T1, IKZF2 (Helios) (Homo sapiens, UniProt Q9UKS7); test: IKZF2 reporter degradation assay (HEK 293T IKZF2-mNeonGreen reporter cell line); settings: HEK 293T IKZF2 reporter cells, 24 hours incubation
T1 construct: Leu-Asp junction (codons ctcgac before the linker); mScarlet (behind P2A) (C, cleaved yes); expressed in transfected cells
Method in brief: (§1)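 Stable clonal HEK 293T lines express each IKZF-mNeonGreen-P2A-mScarlet fusion. Cells were seeded, attached overnight, then given compound (≤0.5% DMSO, quadruplicate) for 24 h at 37° C. Imaged for percent mNeonGreen-positive cells, segmented on mScarlet. DC50 from four-parameter logistic fit.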

IKZF2 (Helios) [2] = target: T2, IKZF2 (Helios) (Homo sapiens, UniProt Q96SW2+Q9UKS7); test: as above; settings: HEK-293T, 24 h, 1 μM compound, HEK 293T IKZF2 reporter cells, 24 hours incubation
T2 construct: Leu-Asp junction (codons ctcgac before the linker); mScarlet (behind P2A) (C, cleaved yes); expressed in transfected cells
Method in brief: as §1

IKZF1 (Ikaros) = target: T3, IKZF1 (Ikaros) (Homo sapiens, UniProt Q13422); test: IKZF1 reporter degradation assay (HEK 293T IKZF1-mNeonGreen reporter cell line); settings: HEK 293T IKZF1 reporter cells, 24 hours incubation
T3 construct: mScarlet (behind P2A) (C, cleaved yes); expressed in transfected cells
Source text: Polycistronic plasmids were constructed for the mammalian expression of fluorescent reporter fusions of human transcription factors IKZF1 (Ikaros), IKZF2 (Helios), and IKZF3 (Aiolos). The respective protein sequences had their C-terminal end joined to a GGGGS linker repeated three times followed by mNeonGreen, P2A sequence, and mScarlet. The DNA sequences of the open reading frames are as follows:
IKZF1, IKZF2, and IKZF3 constructs were cloned into the UCOE Hygromycin expression vectors (Millipore Sigma). Reporter constructs were transfected using cationic lipid reagents into adherent HEK 293T cells and stable integrants were selected by treatment with 200 μg/mL hygromycin B. Clonal populations were obtained from the population of stable integrants either by limiting dilution or fluorescence activated cell sorting.
The clonal stable cell lines were maintained under constant 200 μg/mL hygromycin B selection while being passaged for use in the degradation assays. […] The fluorescence intensity of the IKZF1/2/3-mNeonGreen (FITC channel) and mScarlet (PE channel) reporters were routinely analyzed by flow cytometry to confirm consistent expression levels between experiments.
The IKZF1/IKZF2/IKZF3 degradation assays were carried out by harvesting the HEK 293T reporter cell lines and resuspending the cells in media formulated for reduced background fluorescence (FluoroBrite; Thermo Fisher). The respective cell lines were seeded at a density of 4000 cells/well into black-walled 384-well optical grade assay tissue culture plates. The cells were incubated overnight at 37° C. to allow for attachment to the assay plate. Dilutions of the compounds were prepared in DMSO from 10 mM compound stocks. The assay plates were treated with appropriate concentrations of the compounds by dispensing the DMSO dilutions in quadruplicate wells with an upper limit of 0.5% final DMSO.
After 24 hours incubation with the compounds, the assay plates were imaged on an ImageXpress Pico microscopy system (cells maintained at 37° C. during imaging) to obtain the fluorescent readouts. The assay plates were imaged in the FITC and Tetramethylrhodamine (TRITC) channels to obtain the mNeonGreen fluorescence intensity (reporter degradation data) and mScarlet fluorescence intensity (for cell segmentation). 293T-IKZF1 and 293T-IKZF3 reporter cell lines were imaged with exposures of 500 milliseconds (ms) for both FITC and TRITC channels, while the 293T-IKZF2 reporter cell line was imaged with exposures of 1000 ms for FITC and 1250 ms for TRITC. The resulting data was analyzed with Cell Reporter Xpress software using the 2-channel cell scoring analysis with a “percent positive” readout. The TRITC channel was selected for the “nuclei” segmentation with a threshold of 20 while the FITC channel was selected for the “Marker 1” segmentation and a threshold of 100 for the IKZF1 and IKZF3 reporter lines. […] The minimum segmentation width was set to 6 micrometers and the maximum segmentation width was set to 15 micrometers for all cell lines. The DC50 calculations were determined by regression to best fit four-parameter logistic curves using GraphPad Prism.

IKZF3 (Aiolos) = target: T4, IKZF3 (Aiolos) (Homo sapiens, UniProt Q9UKT9); test: IKZF3 reporter degradation assay (HEK 293T IKZF3-mNeonGreen reporter cell line); settings: HEK 293T IKZF3 reporter cells, 24 hours incubation
T4 construct: Leu-Asp junction (codons ctcgac before the linker); mScarlet (behind P2A) (C, cleaved yes); expressed in transfected cells
Method in brief: as §1

T2 sequence (Q9UKS7 whole entry): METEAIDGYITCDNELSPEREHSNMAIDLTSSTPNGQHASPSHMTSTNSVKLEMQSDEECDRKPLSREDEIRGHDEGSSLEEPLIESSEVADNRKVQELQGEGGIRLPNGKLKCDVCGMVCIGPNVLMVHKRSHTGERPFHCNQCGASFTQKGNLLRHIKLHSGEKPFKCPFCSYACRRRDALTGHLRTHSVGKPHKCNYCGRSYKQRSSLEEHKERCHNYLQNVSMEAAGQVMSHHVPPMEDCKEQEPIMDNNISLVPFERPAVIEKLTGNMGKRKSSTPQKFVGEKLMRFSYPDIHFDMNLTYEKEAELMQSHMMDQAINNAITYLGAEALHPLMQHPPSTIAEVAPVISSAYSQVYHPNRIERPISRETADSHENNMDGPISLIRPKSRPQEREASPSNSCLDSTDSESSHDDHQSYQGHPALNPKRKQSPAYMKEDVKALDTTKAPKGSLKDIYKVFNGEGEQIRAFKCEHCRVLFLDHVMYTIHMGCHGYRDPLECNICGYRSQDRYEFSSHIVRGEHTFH
T2 sequence (Q96SW2 whole entry): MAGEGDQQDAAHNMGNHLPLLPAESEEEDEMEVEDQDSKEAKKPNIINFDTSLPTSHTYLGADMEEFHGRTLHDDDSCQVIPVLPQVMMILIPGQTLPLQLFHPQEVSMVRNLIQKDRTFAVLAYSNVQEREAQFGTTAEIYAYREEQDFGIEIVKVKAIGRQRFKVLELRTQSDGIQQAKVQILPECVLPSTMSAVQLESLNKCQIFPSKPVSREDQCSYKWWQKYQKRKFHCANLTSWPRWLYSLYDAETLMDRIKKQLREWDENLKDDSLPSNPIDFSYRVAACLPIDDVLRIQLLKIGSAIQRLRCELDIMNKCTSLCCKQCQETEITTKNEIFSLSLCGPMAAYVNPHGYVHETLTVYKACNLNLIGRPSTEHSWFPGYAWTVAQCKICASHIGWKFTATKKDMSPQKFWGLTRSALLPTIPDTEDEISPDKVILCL
T2 sequence (Q16531 whole entry partner): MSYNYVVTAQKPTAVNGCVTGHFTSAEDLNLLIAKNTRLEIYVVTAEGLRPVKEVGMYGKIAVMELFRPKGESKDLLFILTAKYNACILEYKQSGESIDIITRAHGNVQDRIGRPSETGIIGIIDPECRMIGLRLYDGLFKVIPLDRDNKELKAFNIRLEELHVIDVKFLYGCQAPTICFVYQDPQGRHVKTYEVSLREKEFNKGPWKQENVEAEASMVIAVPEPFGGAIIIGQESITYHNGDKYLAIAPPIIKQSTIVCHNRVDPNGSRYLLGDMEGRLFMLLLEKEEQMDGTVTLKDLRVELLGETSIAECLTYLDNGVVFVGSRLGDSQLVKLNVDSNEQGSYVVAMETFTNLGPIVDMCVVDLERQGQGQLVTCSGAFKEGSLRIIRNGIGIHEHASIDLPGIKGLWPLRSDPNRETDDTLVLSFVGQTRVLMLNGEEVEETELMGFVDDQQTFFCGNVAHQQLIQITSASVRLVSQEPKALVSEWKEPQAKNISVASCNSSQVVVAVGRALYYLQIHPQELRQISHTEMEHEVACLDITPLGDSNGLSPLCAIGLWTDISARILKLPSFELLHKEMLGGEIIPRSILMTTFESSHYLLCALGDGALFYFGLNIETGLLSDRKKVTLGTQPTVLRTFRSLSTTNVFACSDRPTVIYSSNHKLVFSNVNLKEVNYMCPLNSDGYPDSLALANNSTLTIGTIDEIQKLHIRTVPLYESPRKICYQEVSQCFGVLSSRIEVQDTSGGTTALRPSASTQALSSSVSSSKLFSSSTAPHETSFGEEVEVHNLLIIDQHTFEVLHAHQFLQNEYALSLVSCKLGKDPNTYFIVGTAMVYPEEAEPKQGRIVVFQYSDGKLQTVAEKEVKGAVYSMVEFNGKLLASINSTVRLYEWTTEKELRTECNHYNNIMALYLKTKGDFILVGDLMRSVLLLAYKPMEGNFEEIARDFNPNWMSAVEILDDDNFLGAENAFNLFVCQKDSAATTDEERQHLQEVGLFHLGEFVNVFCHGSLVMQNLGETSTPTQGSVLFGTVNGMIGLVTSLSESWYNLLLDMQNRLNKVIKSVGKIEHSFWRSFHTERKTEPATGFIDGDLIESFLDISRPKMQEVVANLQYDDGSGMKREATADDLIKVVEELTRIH
T1 sequence (Q9UKS7 whole entry): as the sequence (Q9UKS7 whole entry) above
T1 sequence (Q96SW2 whole entry, further chain): as the sequence (Q96SW2 whole entry) above
T1 sequence (Q16531 whole entry partner): as the sequence (Q16531 whole entry partner) above
T3 sequence (Q96SW2 whole entry partner): as the sequence (Q96SW2 whole entry) above
T3 sequence (Q16531 whole entry partner): as the sequence (Q16531 whole entry partner) above
T3 sequence (Q13422 whole entry): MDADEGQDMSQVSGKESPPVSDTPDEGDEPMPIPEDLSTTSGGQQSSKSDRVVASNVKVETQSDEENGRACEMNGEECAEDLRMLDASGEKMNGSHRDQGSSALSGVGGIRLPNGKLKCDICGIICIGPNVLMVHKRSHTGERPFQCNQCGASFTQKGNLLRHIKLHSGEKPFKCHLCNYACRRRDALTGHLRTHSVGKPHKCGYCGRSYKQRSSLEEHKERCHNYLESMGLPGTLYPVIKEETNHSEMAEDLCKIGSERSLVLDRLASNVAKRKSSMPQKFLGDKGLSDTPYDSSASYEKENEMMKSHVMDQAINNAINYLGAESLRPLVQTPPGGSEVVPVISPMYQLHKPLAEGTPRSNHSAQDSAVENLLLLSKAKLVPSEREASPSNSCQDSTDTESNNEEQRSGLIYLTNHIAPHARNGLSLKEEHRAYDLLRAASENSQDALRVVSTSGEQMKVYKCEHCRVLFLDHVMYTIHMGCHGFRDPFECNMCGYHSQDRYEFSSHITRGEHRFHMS
T4 sequence (Q96SW2 whole entry partner): as the sequence (Q96SW2 whole entry) above
T4 sequence (Q16531 whole entry partner): as the sequence (Q16531 whole entry partner) above
T4 sequence (Q9UKT9 whole entry): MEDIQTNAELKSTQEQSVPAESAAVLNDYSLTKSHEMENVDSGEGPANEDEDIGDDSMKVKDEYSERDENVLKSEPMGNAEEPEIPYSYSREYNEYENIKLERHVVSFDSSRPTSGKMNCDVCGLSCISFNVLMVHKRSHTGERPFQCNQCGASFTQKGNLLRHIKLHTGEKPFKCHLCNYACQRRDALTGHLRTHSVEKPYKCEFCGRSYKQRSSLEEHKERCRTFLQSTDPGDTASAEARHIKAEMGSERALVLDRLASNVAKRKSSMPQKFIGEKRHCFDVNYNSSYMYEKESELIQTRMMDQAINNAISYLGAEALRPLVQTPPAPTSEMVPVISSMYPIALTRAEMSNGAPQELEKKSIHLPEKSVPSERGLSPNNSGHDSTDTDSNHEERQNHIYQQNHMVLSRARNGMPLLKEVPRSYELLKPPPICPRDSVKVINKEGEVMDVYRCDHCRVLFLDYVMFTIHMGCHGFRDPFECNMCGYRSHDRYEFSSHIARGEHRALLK

Compound | DC50 (IKZF2 (Helios) [1]) | inhibition at 1 µM (IKZF2 (Helios) [2]) | DC50 (IKZF1 (Ikaros)) | DC50 (IKZF3 (Aiolos))
COc1ncc(C2CN(C3CCCCC3Oc3ccc4c(c3)CN(C3CCC(=O)NC3=O)C4=O)C2)cn1 (stereo not drawn) [Compound 76-B, 3-(5-((2-(3-(2-methoxypyrimidin-5-yl)azetidin-1-yl)cyclohexyl)oxy)-1-oxoisoindolin-2-yl)piperidine-2,6-dione] | 0.0286 µM | 84.6% | > 30 µM | > 30 µM
O=C1CCC(N2Cc3cc(OC4CCCCC4N4CC(c5ccnc(C(F)(F)F)c5)C4)ccc3C2=O)C(=O)N1 (stereo not drawn) [Compound 1-B, 3-(1-oxo-5-((2-(3-(2-(trifluoromethyl)pyridin-4-yl)azetidin-1-yl)cyclohexyl)oxy)isoindolin-2-yl)piperidine-2,6-dione] | 0.525 µM | 32.1% | > 30 µM | > 30 µM
O=C1CCC(N2Cc3cc(OC4CCCCC4N4CC(c5ccccn5)C4)ccc3C2=O)C(=O)N1 (stereo not drawn) [Compound 51-B, 3-(1-oxo-5-((2-(3-(pyridin-2-yl)azetidin-1-yl)cyclohexyl)oxy)isoindolin-2-yl)piperidine-2,6-dione] | 0.321 µM | 24% | > 30 µM | > 30 µM
O=C1CCC(N2Cc3cc(OC4CCCCC4N4CC(c5c[nH]c6ccccc56)C4)ccc3C2=O)C(=O)N1 (stereo not drawn) [Compound 61-B, 3-(5-((2-(3-(1H-indol-3-yl)azetidin-1-yl)cyclohexyl)oxy)-1-oxoisoindolin-2-yl)piperidine-2,6-dione] | 0.026 µM | 55.8% | > 30 µM | > 30 µM
COc1ccc(C2CN(C3CCCCC3Oc3ccc4c(c3)CN(C3CCC(=O)NC3=O)C4=O)C2)cn1 (stereo not drawn) [Compound 16-B, 3-(5-((2-(3-(6-methoxypyridin-3-yl)azetidin-1-yl)cyclohexyl)oxy)-1-oxoisoindolin-2-yl)piperidine-2,6-dione] | 0.0226 µM | 80.6% | > 30 µM | > 30 µM
O=C1CCC(N2Cc3cc(OC4CCCCC4N4CC(c5cnc6ccccc6n5)C4)ccc3C2=O)C(=O)N1 (stereo not drawn) [Compound 21-B, 3-(1-oxo-5-((2-(3-(quinoxalin-2-yl)azetidin-1-yl)cyclohexyl)oxy)isoindolin-2-yl)piperidine-2,6-dione] | 0.0382 µM | 72.5% | > 30 µM | > 30 µM
O=C1CCC(N2Cc3cc(OC4CCCCC4N4CC(c5cccnc5)C4)ccc3C2=O)C(=O)N1 (stereo not drawn) [Compound 36-B, 3-(1-oxo-5-((2-(3-(pyridin-3-yl)azetidin-1-yl)cyclohexyl)oxy)isoindolin-2-yl)piperidine-2,6-dione] | 0.188 µM | 49.9% | > 30 µM | > 30 µM
O=C1CCC(N2Cc3cc(OC4CCCCC4N4CC(c5ncc(Cl)cn5)C4)ccc3C2=O)C(=O)N1 (stereo not drawn) [Compound 26-B, 3-(5-((2-(3-(5-chloropyrimidin-2-yl)azetidin-1-yl)cyclohexyl)oxy)-1-oxoisoindolin-2-yl)piperidine-2,6-dione] | 0.525 µM | 78.4% | > 30 µM | > 30 µM
Cc1cc(C2CN(C3CCCCC3Oc3ccc4c(c3)CN(C3CCC(=O)NC3=O)C4=O)C2)ccn1 (stereo not drawn) [Compound 56-B, 3-(5-((2-(3-(2-methylpyridin-4-yl)azetidin-1-yl)cyclohexyl)oxy)-1-oxoisoindolin-2-yl)piperidine-2,6-dione] | 0.0111 µM | 84.8% | > 30 µM | > 30 µM
